{"source": "patent US6979747B2", "about": "“Antioxidants, preparation processes and their uses” (Centre National de la Recherche Scientifique (CNRS), priority 1999, dated 2005)", "format_in_all_cases": "cell-based", "key": {"HIV-1/Ba-L [1]": {"system": "HIV-1/Ba-L", "test": "Antiviral activity in MDM cultures infected with HIV-1/Ba-L (RT activity in culture supernatants)", "details": "for viral replication (in words): treatment of MDMs 7 days after infection", "experimental": "A million monocytes in 1 ml of culture medium A are distributed in each well of a 48 well plate (Becton-Dickinson). The monocytes are left to differentiate into macrophages for 7 days. The macrophages thus differentiated are maintained in culture in medium A.\nThe MDMs were infected with the reference isolate with macrophage tropism, HIV-1/Ba-L. The PBMCs and the PBLs were infected with the reference isolate with lymphocyte tropism HIV-1 LAI. The viral stock were formed by amplifying these strains in vitro using umbilical blood mononucleated cells (UBM(s) preactivated with 1 μg/ml of PHA-P and cultured in medium A supplemented by 20 IU/ml of IL-2. In order to remove the soluble factors, such as cytokines, the culture supernatants were ultracentrifuged at 360 000 g for 5 min, and the pellets were resuspended in RPMI 1640. The viral stocks thus formed were subsequently titred using PBMCs activated with PHA-P. The TCID50s (50% Tissue Culture Infectious Dose) were calculated using the Kärber formula.\nA million MDMs were infected with 10 000 TCID50s of the HIV-1/Ba-L strain. This amount of virus corresponds to a multiplicity of infection (m.o.i.) equal to 0.01. The excess of virus is removed 24 h after by washing with cells using RPMI 1640. The PBLs and the PBMCs were infected with 10 000 TCID50s of the HIV-1 LAI strain (moi=0.01). The cells were washed at the end of the second day of infection.\nThe viral replication is measured by assaying the RT activity in the culture supernatants according to the technique described by F. Rey et al. (Biochem. Biophys. Res. Comm., 1984, 121, 126-133). The radioactivity incorporated during the extension of the complementary strand of a poly-rA synthetic matrix in the presence of an oligo-dT12-18 primer and of a radiolabeled substrate, [^3H-methyl]thymidine-5′-triphosphate ([^3H]TPP), makes it possible to assay the enzymatic activity of RT. 400 μl of supernatant are ultracentrifuged at 360 000 g for 5 min. The RT is released by lysis of the viral pellet in 20 μl of NTE-Triton (100 mM NaCl, 10 mM Tris, 1 mM EDTA, 0.1% Triton X-100). These 20 μl are subsequently incubated with 40 μl of the following reaction mixture: 62.5 mM Tris, pH 7.8; 25 mM KCl; 6.25 mM MgCl2; 1.25 mM dithiothreitol (DTT); 2.5×10^−3 ODU oligo-dT12-18 and poly-rA, 5.55×10^−3 TBq {^3H]TTP. After one hour at 37° C., the enzymatic reaction is halted and the newly synthesized strands are precipitated for 20 min at 4° C. by the addition of 1 ml of sodium pyrophosphate (NaPP), of 50 μl of yeast DNA (0.1 mg/ml in 5% trichluoroacetic acid (TCA)), and of 4 ml of 20% TCA. The mixture is filtered using a cellulose acetate membrane (Millipore) which retains the radiolabeled poly-dT chains. The filter is washed using 20 ml of 5% TCA and the residual water is removed by addition of 25 μl of 70% ethanol. The filter is dried in an oven for 10 minutes at 80° C. and is then introduced into vials containing 8 ml of liquid scintillant. The β radioactivity is quantified by means of a scintillation counter (Packard Bell). The results are expressed in pM of [^3H]-TMP incorporated/h/ml of supernatant or, more simply, in cpm/h/ml.\nThe 50% effective doses (ED50) are calculated from the cumulative RT activities using the software “Dose-effects analysis with microcomputers” developed by J. Chou & T. C. Chou."}, "HIV-1/Ba-L [2]": {"system": "HIV-1/Ba-L", "test": "Production of p25 protein in supernatants of MDMs infected with HIV-1/Ba-L (ELISA)", "details": "infected MDM cultures", "experimental": "The assaying of the p25 protein is carried out using the ELISA kit from DuPont de Nemours. 200 μl of the culture supernatant to be tested are placed in a well of a microtitration plate. The addition of 20 μl of lysis buffer releases the viral proteins in the medium. The released antigen attaches to a mouse anti-p25 monoclonal antibody immobilized at the bottom of the wells. After incubating for 2 h at 37° C., 3 washing operations using 5 ml of washing buffer are carried out and then 100 μl of a biotinylated polyclonal antibody which reacts with the immobilized antigen are incubated for 1 h at 37° C. The series of 3 washing operations in the same buffer and with the same volume is again carried out before the addition over 15 min at 37° C. of 100 μl of Raifort-streptavidin peroxidase conjugate which will make it possible to amplify the colorimetric reaction. […] After incubating for 30 min at ambient temperature, the reaction is halted by the addition of 100 μl of 4N sulfuric acid. The OD of the coloring thus obtained is read at […]. This absorbence is directly proportional to the amount of attached antigen. The linear relationship relating the O.D. to the p25 concentration is established by virtue of a standard range produced from a recombinant p25 solution."}, "HIV-1/Ba-L [3]": {"system": "HIV-1/Ba-L", "test": "Combination of I-152 with AZT in MDMs infected with HIV-1/Ba-L (Chou combination index)", "details": "I-152 combined with AZT", "experimental": "Viral replication was measured by assaying the reverse transcriptase activity in culture supernatants using the RetroSys kit from Innovagen, following the recommendations of the company.\nThe compound I-152 and its derivatives are prepared extemporaneously by being dissolved in dimethyl sulfoxide (DMSO) at the concentration of 100 mM. They are subsequently stored at −20° C. after having been diluted 10 fold in phosphate buffer (PBS).\nThe pro-GSH compounds of the “I-152 family” are preferably administered as adjuvants therapeutic for current antiretrovirals. The inventors have thus attempted to measure in vitro the effects of I-152 with respect to the anti-HIV effectiveness of these molecules. This study was carried out using macrophages derived from human blood monocytes infected by the HIV-1/Ba-L strain and according to the methodology described by J. and T C. Chou for quantifying the synergistic effects, additive or antagonistic, between two molecules."}, "[4]": {"details": "ratio of inhibiting concentrations, MDMs, HIV-1/Ba-L"}}, "data": [{"molecule": "CC(=O)N[C@@H](CS)C(=O)NCCSC(C)=O", "note": "[I-152, N-(N-acetyl-L-cysteinyl)-S-acetylcysteamine]", "values": [{"measurement": "EC50", "setting": "HIV-1/Ba-L [1]; Human immunodeficiency virus 1, BAL, MDMs infected with 10 000 TCID50s HIV-1/Ba-L (m.o.i. 0.01), read-out: inhibiting concentration (50% effective dose)", "value": 50, "unit": "µM"}, {"measurement": "antiviral activity (in words)", "setting": "HIV-1/Ba-L [1]; MDMs infected with HIV-1/Ba-L, compounds dissolved in medium A", "value": "strong antiviral activity superior to that of NAC or of MEA"}, {"measurement": "times more effective than MEA", "setting": "HIV-1/Ba-L [1]; [4]", "value": 6, "unit": "times"}, {"measurement": "times more effective than NAC", "setting": "HIV-1/Ba-L [1]; [4]", "value": 188, "unit": "times"}, {"measurement": "antiviral activity (in words)", "setting": "HIV-1/Ba-L [1]; second series, compounds dissolved in DMSO then diluted, MDMs, HIV-1/Ba-L", "value": "the most effective in inhibiting viral replication"}, {"measurement": "viral replication (in words)", "setting": "HIV-1/Ba-L [1]; 250 μM", "value": "ineffective"}, {"measurement": "viral replication (in words)", "setting": "HIV-1/Ba-L [1]; 500 μM", "value": "viral replication is extinguished"}, {"measurement": "production of the p25 protein (in words)", "setting": "HIV-1/Ba-L [2]", "value": "inhibition of the production of the p25 protein"}, {"measurement": "combination index (CI)", "setting": "HIV-1/Ba-L [3]", "value": "less than 1"}]}]}
